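The compound was tested at five concentrations on cells cultured in 96-well plates, with a 48-hour exposure period. GI50 = concentration required for 50% inhibition of growth.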 Active and inactive are the calls of the source. Rule as the data show it: active = GI50 up to about 1.1 µM and inactive = higher.
Tests used:
Assay in all cases: NCI-60 cell line screen, 48 h
HOP-92 = tested on: HOP-92
OVCAR-4 = tested on: OVCAR-4
MOLT-4 = tested on: MOLT-4
SR = tested on: SR
OVCAR-5 = tested on: OVCAR-5
SK-MEL-2 = tested on: SK-MEL-2
SK-MEL-5 = tested on: SK-MEL-5
NCI-H460 = tested on: NCI-H460
Malme-3M = tested on: Malme-3M
OVCAR-3 = tested on: OVCAR-3
HCT-116 = tested on: HCT-116
CCRF-CEM = tested on: CCRF-CEM
IGROV-1 = tested on: IGROV-1
A549 = tested on: A549
HCT-15 = tested on: HCT-15
RPMI-8226 = tested on: RPMI-8226
UACC-257 = tested on: UACC-257
DLD-1 = tested on: DLD-1

| Compound | GI50 (HOP-92) | GI50 (OVCAR-4) | GI50 (MOLT-4) | GI50 (SR) | GI50 (OVCAR-5) | GI50 (SK-MEL-2) | GI50 (SK-MEL-5) | GI50 (NCI-H460) | GI50 (Malme-3M) | GI50 (OVCAR-3) | GI50 (HCT-116) | GI50 (CCRF-CEM) | GI50 (IGROV-1) | GI50 (A549) | GI50 (HCT-15) [µM] | GI50 (RPMI-8226) | GI50 (UACC-257) | GI50 (DLD-1) |
| --- | --- | --- | --- | --- | --- | --- | --- | --- | --- | --- | --- | --- | --- | --- | --- | --- | --- | --- |
| CC1=CC(=O)NP(=O)(Oc2ccc(Cl)cc2)N1 (centres undefined) | > 100 µM (inactive) | > 100 µM (inactive) | > 100 µM (inactive) | > 100 µM (inactive) | > 100 µM (inactive) | > 100 µM (inactive) | > 100 µM (inactive) | > 100 µM (inactive) | > 100 µM (inactive) | > 100 µM (inactive) | > 100 µM (inactive) | > 100 µM (inactive) | > 100 µM (inactive) | > 100 µM (inactive) | > 100 | > 100 µM (inactive) | > 100 µM (inactive) | > 100 µM (inactive) |
| Cc1ccc(S(=O)(=O)N[C@H](C(=O)O)c2ccccc2)cc1 | > 100 µM (inactive) | > 100 µM (inactive) | 58.6 µM (inactive) | – | > 100 µM (inactive) | > 100 µM (inactive) | > 100 µM (inactive) | > 100 µM (inactive) | > 100 µM (inactive) | > 100 µM (inactive) | – | > 100 µM (inactive) | > 100 µM (inactive) | > 100 µM (inactive) | > 100 | 26.8 µM (inactive) | > 100 µM (inactive) | > 100 µM (inactive) |
| C/C(=N\N(c1ccccc1)c1ccccc1)c1c(O)cc(C)oc1=O | 46.3 µM (inactive) | 45.1 µM (inactive) | 54.2 µM (inactive) | 56.9 µM (inactive) | – | > 100 µM (inactive) | – | 46.5 µM (inactive) | > 100 µM (inactive) | – | 45.1 µM (inactive) | 89.7 µM (inactive) | – | 75 µM (inactive) | 71.3 | – | 47.8 µM (inactive) | 76.2 µM (inactive) |
| O=[N+]([O-])c1cccc(C2SCc3nc4ccccc4n32)c1 (centres undefined) | 19 µM (inactive) | 63.8 µM (inactive) | 59.4 µM (inactive) | 82.4 µM (inactive) | 39.3 µM (inactive) | > 100 µM (inactive) | 19.6 µM (inactive) | > 100 µM (inactive) | 54.1 µM (inactive) | – | – | > 100 µM (inactive) | 33 µM (inactive) | > 100 µM (inactive) | – | – | 39.3 µM (inactive) | 62.8 µM (inactive) |
| CC1=C(C(=O)NCc2ccccc2)C(c2ccc([N+](=O)[O-])cc2)C(C(=O)NCc2ccccc2)=C(C)N1 | 26.8 µM (inactive) | 17.4 µM (inactive) | – | – | 25.4 µM (inactive) | 30.8 µM (inactive) | 38.5 µM (inactive) | 35.1 µM (inactive) | 67.5 µM (inactive) | 46.5 µM (inactive) | 21.9 µM (inactive) | – | 56.5 µM (inactive) | 31.9 µM (inactive) | 45.4 | – | 38.6 µM (inactive) | 36.7 µM (inactive) |
| CCOC(=O)CCC(NC(=O)c1ccc(NC(OC)c2nc3cc(C(F)(F)F)ccc3nc2-c2ccccc2)cc1)C(=O)OCC (centres undefined) | 16 µM (inactive) | 21.5 µM (inactive) | 2.67 µM (inactive) | – | 17.6 µM (inactive) | 17.3 µM (inactive) | 16.3 µM (inactive) | 12.7 µM (inactive) | 17 µM (inactive) | 18.5 µM (inactive) | 2.92 µM (inactive) | 2.51 µM (inactive) | 15.7 µM (inactive) | 18.5 µM (inactive) | 14.3 | 6.41 µM (inactive) | 16.3 µM (inactive) | 9.4 µM (inactive) |
| O=C1C(c2ccccc2)=C(c2ccccc2)[C@H](c2ccccc2)[C@]1(Cc1nnn(-c2ccc([N+](=O)[O-])cc2)c1N1CCOCC1)c1ccccc1 | 0.00621 µM (active) | 13.7 µM (inactive) | 12.1 µM (inactive) | – | – | – | 19.1 µM (inactive) | > 37.5 µM (inactive) | – | 9.93 µM (inactive) | 28.7 µM (inactive) | > 37.5 µM (inactive) | > 37.5 µM (inactive) | > 37.5 µM (inactive) | > 37.5 | > 37.5 µM (inactive) | > 37.5 µM (inactive) | > 37.5 µM (inactive) |
| Cc1cc(C(=O)NCCN(C)C)c2nc3ccccc3nc2c1 | 1.06 µM (active) | 4.75 µM (inactive) | 0.128 µM (active) | 0.453 µM (active) | 7.43 µM (inactive) | 4.33 µM (inactive) | 4.44 µM (inactive) | – | 3.21 µM (inactive) | 5.71 µM (inactive) | 1.48 µM (inactive) | – | 4.81 µM (inactive) | 3.88 µM (inactive) | 2.9 | 3.15 µM (inactive) | 4.16 µM (inactive) | 4.08 µM (inactive) |
| N#CC(NNC(=O)Cc1ccccc1)c1ccc([N+](=O)[O-])cc1 (centres undefined) | 55.3 µM (inactive) | > 100 µM (inactive) | > 100 µM (inactive) | > 100 µM (inactive) | > 100 µM (inactive) | > 100 µM (inactive) | > 100 µM (inactive) | > 100 µM (inactive) | > 100 µM (inactive) | – | > 100 µM (inactive) | > 100 µM (inactive) | > 100 µM (inactive) | > 100 µM (inactive) | > 100 | > 100 µM (inactive) | > 100 µM (inactive) | > 100 µM (inactive) |

— ChEMBL document CHEMBL1201862, “PubChem BioAssay data set” (2004)
